According to patent EP0715517B1, “ESTRENE STEROIDS AS NEU[…] CHANGE IN HUMAN HY[…] AND RELATED PHARMACEUTICAL COMPOSITIONS” (priority 1993, dated 1994):
“Also recorded” adds a separate entry of the source.

Columns and labels:
[1] = tested on: human vomeronasal organ (VNO); assay: Local electrical potentials recorded from the VNO after localized gaseous stimulation (Example 20); type: in vivo; details: for VNO response, males compared with females (sexually dimorphic): Fig. 2B; for VNO response: males, about 25 pg of steroid-ligand puffed 1 to 2 seconds, response measured in mV x s, Fig. 2A
Procedure: A non-invasive method has been employed to record local electrical potentials from the human vomeronasal organ (VNO) and from the olfactory epithelium (OE). Localized gaseous stimulation was applied to both nasal structures at different instances using specially designed catheter/electrodes connected to a multichannel drug delivery system.
The study was performed on ten clinically normal (screened) volunteers - 2 males and 8 females, ranging in age from 18 to 85 years. The studies were conducted without general or local anesthetics.
The catheter/electrodes were designed to deliver a localized stimulus and simultaneously record the response. In the case of VNO recording, the right nasal fosa of the subject was explored using a nasoscope (nasal specula) and the vomeronasal opening was localized close to the intersection of the anterior edge of the vomer and the nasal floor. The catheter/electrode was gently driven through the VNO-opening and the electrode tip placed in the organ's lumen at 1 to 3 mm from the opening. The nasoscope was then removed. In the case of the OE, recording the procedure was similar except the positioning of the catheter/electrode was gently placed deep in the lateral part of the medial nasal duct, reaching the olfactory mucosa.
Localized gaseous stimulation was done through the catheter/electrode. A constant stream of clean, nonodorous, humidified air at room temperature was continuously passed through a channel of the stimulating system. The stimulating ligand substances were diluted in propylene glycol, mixed with the humidified air, and puffed for from 1 to 2 seconds through the catheter/electrode. It is estimated that this administration provides about 25 pg of steroid-ligand to the nasal cavity.

[2] = tested on: olfactory epithelium (OE); assay: Electro-olfactgram (EOG) (Example 25); type: in vivo, human; details: 20 subjects (10 males, 10 females); 200 fmoles vomeropherins, 400 fmoles olfactants; one second pulses; Fig. 7A
Excerpt: (§1) The stimulation and recording system consists of a "multifunctional miniprobe" described elsewhere (Monti-Bloch, L. and Grosser, B.l. (1991) "Effect of putative pheromones on the electrical activity of the human vomeronasal organ and olfactory epithelium," J. Steroid Biochem. Molec. Biol. 39:573-582.). The recording electrode is a 0.3 mm silver ball attached to a small (0.1 mm) silver wire insulated with Teflon© the surface of the electrode is first treated to produce a silver chloride interface, and is then covered with gelatin It is positioned within a small caliber Teflon© catheter (dia = […]) such that the tip of the electrode protrudes approximately 2 mm. The Teflon© catheter is 10 cm in length and constitutes the terminal extension for a multichannel delivery system which delivers a continuous air stream carrying discreet pulses of chemosensory stimuli. The air stream first passes into a small chamber and is bubbled through a solution containing either a vomeropherin or an olfactant in a diluent or the diluent alone. A solenoid is used to rapidly redirect the air stream from the chamber to a route which bypasses the chamber. This creates a discreet pulse of stimulant in the air stream. A second, outer Teflon® tube with a diameter of 2 mm surrounds the catheter-electrode assemblage, and its central end is connected to an aspirator that provides continuous suction of 3ml/s. This concentric arrangement of the outer suction tube allows the emitted chemosensory stimuli to be localized to an area we call a "minifield" (approx. dia = 1 mm), and it avoids diffusion of substances either to the area outside the intended stimulation site or into the respiratory system. The entire stimulating and recording assemblage may be positioned either on the neurosensory epithelium within the VNO, or on the surface of the olfactory or respiratory epithelium. Electro-vomeronasogram (EVG): Recordings are carried out in a quiet room with the subject supine; the multifunctional miniprobe is initially stabilized within the nasal cavity using a nasal retractor placed in the vestibule. Reference and ground electrodes consist of silver discs (8 mm), both of which are positioned on the glabella.
Electrical signals from the recording electrode are fed to a DC amplifier after which they are digitized, computer monitored, and stored. The peak-to-peak amplitude of the signals is measured, and the area under the depolarization wave is integrated, while continuously monitoring the signal both on the computer screen and on a digital oscilloscope. […]
Effects of Vomeropherins on the EOG: The summated receptor potential from the olfactory epithelium (OE) was recorded in 20 subjects: 10 males and 10 females. […]

VNO [3] = assay: Electro-vomeronasogram (EVG) (Example 25); type: in vivo, human; details: for EVG response to olfactants delivered to the VNO: male and female subjects, 400 fmoles, Fig. 7B; for EVG response in female subjects (in words): 30 female subjects (ages 20 - 45), Fig. 6B; for EVG response in female subjects (in words) / EVG average response (mean) / EVG response in the male VNO (in words): 100 fmoles; for EVG average response (mean): male subjects (ages 20 to 38), 1 second pulses, p<0.01, Fig. 6A; for EVG response in the male VNO (in words): male subjects, Fig. 6A and Fig. 7
Procedure: The following electrophysiological studies were performed in 60 clinically normal human volunteers of both sexes (30 male and 30 female) whose ages ranged from 20 to 45 years. No anesthetics were used, and female subjects were excluded if pregnant.
as §1
The entrance to the VNO, or vomeronasal pit, is identified by first dilating the nasal aperture and vestibule. A 6x magnifying binocular loupe with halogen illumination is then used to introduce the tip of the Teflon® catheter and recording electrode assemblage into the VNO opening where it is stabilized at an approximate depth of 1 mm within the vomeronasal passage. Optimal placement of the recording electrode is signaled after testing for an adequate depolarization in response to a test substance.
Electrical signals from the recording electrode are fed to a DC amplifier after which they are digitized, computer monitored, and stored. The peak-to-peak amplitude of the signals is measured, and the area under the depolarization wave is integrated, while continuously monitoring the signal both on the computer screen and on a digital oscilloscope. Artifacts produced by respiratory movements are deleted by training the subjects to practice mouth breathing with velopharyngeal closure. Chemosensory Stimulants: Olfactory test substances are cineole, and 1-carvone; vomeropherins are A, B, C, E and F. (Vomeropherins were supplied by Pherin Corporation, Menlo Park, California), Samples of vomeropherins In concentration of 25-800 fmoles are delivered in the continuous air stream for durations from 300 milliseconds to 1 second. Usually, intervals of 3 to 5 minutes separated each series of short test pulses. […]

VNO [4] = assay: Autonomic responses to Estrene stimulation of the VNO (Example 22); type: in vivo, human; details: 40 male subjects, 1 second pulse
Procedure: Various autonomic parameters were monitored while 1,3,5(10), 16-Estratetraen-3-yl-acetate was administered to 40 male subjects using the procedure described in Example 20. Propylene glycol was also administered as a control. The ligand was administered as a 1 second pulse. The change in autonomic function was first noted within 2 seconds and lasted for up to 45 seconds.

VNO [5] = assay: Electrodermal activity (EDA) after VNO stimulation (Example 25); type: in vivo, human; details: p<0.01, n = 30; for skin resistance (electrodermal activity, EDA): male subjects, Fig. 6C; for decrease in EDA: female subjects
Procedure: (§2) Cortical evoked activity was induced by VNO stimulation with vomeropherins, and olfactory stimulation with odorants delivered in 300 ms air pulses. It was recorded using standard electroencephalographic (EEG) electrodes placed at positions Cz-A1 and Tz-A1 of the international […] system; the ground electrode was placed on the mastoid process. Electrodermal activity (EDA) was recorded using standard 8 mm silver electrodes in contact with palmar skin of the medial and ring fingers respectively, through a conductive gel interface. Skin temperature (ST) was recorded by a small (1.0 mm) thermistor probe placed in the right ear lobe. Peripheral arterial pulse (PAP) was monitored with a plethysmograph attached to the tip of the index finger. Respiratory frequency (RF) was measured with an adjustable strain gauge placed around the lower thorax. All electrical signals were DC amplified, digitized (MP-100, Biopac Systems) and continuously monitored utilizing a computer. Statistical Analysis: EVGs or EOGS, peak-to-peak changes and frequency changes of other parameters were measured and statistically analyzed. The significance of the results was determined by either using paired t-tests or analysis of variance (ANOVA). […] Recordings of the EVG were performed on 30 men and 30 women (ages 20 to 45). Vomeropherins were diluted and applied as 1 second pulses to the VNO with […] intervals between pulses when questioned, the subjects were not able to "smell" or otherwise consciously detect any of the vomeropherins.

VNO [6] = assay: Skin temperature (ST) after VNO stimulation (Example 25); type: in vivo, human
Procedure: as §2

VNO [7] = assay: Cortical evoked activity (EEG, alpha cortical activity) after VNO stimulation (Example 25); type: in vivo, human
Procedure: as §2
[…] […] Synchronization of the EEG was sustained for 1.5 to 2.7 minutes after application of a single pulse of active substance.

[8] = 30 male subjects, p<0.01, Fig. 6G
[9] = males, 200 fmoles, air pulses 300 ms to 1 sec, Fig. 6E
[10] = 30 female subjects, p<0.01, compared to A and C, Fig. 6H
[11] = females, single pulse (200 fmoles), Fig. 6F

Compound: C[C@]12CC[C@@H]3c4ccc(O)cc4CC[C@H]3[C@@H]1C[C@@H](O)[C@@H]2O [1,3,5(10)-Estratrien-3, 16α,17δ-triol]
- VNO response, males compared with females (sexually dimorphic) [1]: approximately four times as strong in males as it is in females
- VNO response [1]: strong VNO response

Compound: C=C(C)[C@@H]1CC=C(C)C(=O)C1 [1-carvone, reference compound]
- EOG local response of the OE (in words) [2]: strong response in both men and women; also recorded: significant (p<0.01) local response
- EVG response to olfactants delivered to the VNO (VNO [3]): only a minor local response in the VNO; also recorded: do not induce a significant EVG response

Compound: CC(=O)Oc1ccc2c(c1)CC[C@@H]1[C@@H]2CC[C@]2(C)C=CC[C@@H]12 [A, 1,3, 5(10),16-Estratetraen-3-yl acetate]
- change in autonomic function first noted (onset) (VNO [4]): ≤ 2 s
- change in autonomic function lasted (duration) (VNO [4]): up to 45 seconds
- integrated receptor potential in the VNO (VNO [4]; compared to propylene glycol control, Fig. 4A): significant change
- galvanic skin response (VNO [4]; compared to propylene glycol control, Fig. 4B): significant change
- skin resistance (electrodermal activity, EDA) (VNO [5]): decreased skin resistance
- skin temperature (ST) (VNO [6]; [8]): significant increase in skin temperature
- alpha cortical activity (VNO [7]; [9]): significantly increased alpha cortical activity; also recorded: strongest effect
- latency of increase in alpha cortical activity (VNO [7]; males, 200 fmoles, Fig. 6E): 270 to 380 ms
- EVG response in female subjects (in words) (VNO [3]): small effect that was significantly different from F
- EVG average response (mean) (VNO [3]): 11.4 mV

Compound: C[C@@]12C=CC[C@H]1[C@@H]1CCC3=CC(=O)CC[C@]3(C)[C@H]1CC2 [B, Androsta-4,16-dien-3-one]
- EOG local response of the OE (in words) [2]: the only vomeropherin having significant effect in the OE; also recorded: significant (p<0.01) local response
- decrease in EDA (VNO [5]): greater decrease in EDA than A or C
- skin temperature (ST) (VNO [6]; [10]): significant increase in skin temperature
- alpha cortical activity (VNO [7]; [11]): increased alpha cortical
- EVG response in the male VNO (in words) (VNO [3]): significantly reduced responses in the male VNO

Compound: C[C@@]12C=CC[C@H]1[C@@H]1CCc3cc(O)ccc3[C@H]1CC2 [C, 1,3,5(10),16-Estratetraen-3-ol]
- skin resistance (electrodermal activity, EDA) (VNO [5]): decreased skin resistance
- VNO response, males compared with females (sexually dimorphic) [1]: approximately four times as strong in males as it is in females
- VNO response [1]: significantly stronger VNO response in males than do the other compounds tested
- skin temperature (ST) (VNO [6]; [8]): significant increase in skin temperature
- alpha cortical activity (VNO [7]; [9]): significantly increased alpha cortical activity
- latency of increase in alpha cortical activity (VNO [7]; males, 200 fmoles, Fig. 6E): 270 to 380 ms
- EVG average response (mean) (VNO [3]): 6.4 mV

Compound: C[C@@]12C=CC[C@H]1[C@@H]1CCC3=C[C@H](O)CC[C@]3(C)[C@H]1CC2 [E, Androsta-4,16-dien-3α-ol]
- EOG local response of the OE (in words) [2]: stronger olfactory effect than does F; also recorded: significant (p<0.01) local response
- EVG response in female subjects (in words) (VNO [3]): does not stimulate the VNO in female subjects

Compound: C[C@@]12C=CC[C@H]1[C@@H]1CCC3=C[C@@H](O)CC[C@]3(C)[C@H]1CC2 [F, Androsta-4,16-dien-3β-ol]
- decrease in EDA (VNO [5]): greater decrease in EDA than A or C
- skin temperature (ST) (VNO [6]; [10]): significant increase in skin temperature
- alpha cortical activity (VNO [7]; [11]): increased alpha cortical
- EVG response in female subjects (in words) (VNO [3]): produced the most significant differences within the group
- EVG response in the male VNO (in words) (VNO [3]): significantly reduced responses in the male VNO

Compound: CC12CCC(CC1)C(C)(C)O2 [cineole, reference compound]
- EOG local response of the OE (in words) [2]: strong response in both men and women; also recorded: significant (p<0.01) local response
- EVG response to olfactants delivered to the VNO (VNO [3]): only a minor local response in the VNO; also recorded: do not induce a significant EVG response
